The values below come from patent publication US10660333B2, “Substituted 2-heterocyclylimidazolylcarboxamides as pesticides” (BAYER CROPSCIENCE AKTIENGESELLSCHAFT, priority 2016, dated 2020).

Each structure is given as a SMILES string. Read-outs that look alike come from different tables or passages of the source.

Data set [1] in a line: log P by HPLC on reversed-phase (C18) columns, OECD Guideline 117. It is filed as physicochemical.
Data set [2] deals with Myzus persicae. As to the kind of experiment: Myzus persicae - spray test. It is filed as in vivo. To be noted: 500 g/ha, Chinese cabbage leaf discs, after 5 days. As for the experimental part: Myzus persicae—Spray Test
To produce a suitable active ingredient formulation, 1 part by weight of active ingredient is dissolved with the specified parts by weight of solvent and made up to the desired concentration with water containing an emulsifier concentration of 1000 ppm. To produce further test concentrations, the formulation is diluted with emulsifier-containing water.
Discs of Chinese cabbage leaves (Brassica pekinensis) infested by all stages of the green peach aphid (Myzus persicae) are sprayed with an active ingredient formulation of the desired concentration.
(§1) After 5 days, the efficacy in % is determined. 100% means that all the aphids have been killed; 0% means that no aphids have been killed.

In data set [3] the test system is Myzus persicae. Description: Myzus persicae - oral test. It is filed as in vivo. The conditions noted are these: 4 ppm, oral, after 5 days. The protocol:
To produce a suitable active ingredient formulation, 1 part by weight of active ingredient is dissolved with the specified parts by weight of solvent and made up to the desired concentration with water.
50 μl of the active ingredient formulation are transferred into microtitre plates and made up to a final volume of 200 μl with 150 μl of IPL41 insect medium (33%+15% sugar). Subsequently, the plates are sealed with parafilm, which a mixed population of green peach aphids (Myzus persicae) within a second microtitre plate is able to puncture and imbibe the solution.
as §1

The mark [4] stands for this setting: reversed-phase (C18) HPLC column, HPLC RP C18, acidic range pH 2.7, 0.1% formic acid/acetonitrile, read-out: logP[a].
Setting [5] is: reversed-phase (C18) HPLC column, HPLC RP C18, neutral range pH 7.8, ammonium hydrogencarbonate/acetonitrile, read-out: logP[n].
The mark [6] stands for this setting: HPLC RP C18, acidic range pH 2.7, 0.1% formic acid/acetonitrile.
Where [7] appears, read: HPLC RP C18, neutral range pH 7.8, ammonium hydrogencarbonate/acetonitrile.

In the case of `CCOC(=O)C1=NOC(c2ncc(C(=O)N(C)c3cccnc3)n2C)C1` (stereo not shown) [Example I-1-5, Ethyl 5-{1-methyl-5-[methyl(pyridin-3-yl)carbamoyl]-1H-imidazol-2-yl}-4,5-dihydro-1,2-oxazole-3-carboxylate], the chromatographic logP in data set [1] (setting [4]) was determined as 1.04; in data set [1] (setting [5]), 1.32. Further, in data set [2] (Myzus persicae, foliar, 120 h, read-out: efficacy (aphids killed)), the pest or weed control at 500 g/ha was found to be 100%. In data set [3] (Myzus persicae, 120 h, read-out: efficacy (aphids killed)), the pest or weed control at 4 ppm was 100%.

In the case of `CN(C)C(=O)C1=NOC(c2ncc(C(=O)N(C)c3cccnc3)n2C)C1` (stereo not shown) [Example I-1-6], the “logP[a]” value in data set [1] (setting [6]) came to 0.77. Further, the “logP[n]” value in data set [1] (setting [7]) is on record as 0.97. The “efficacy (aphids killed)” value in data set [2] and in data set [3] was 100% throughout.

As for `CN(C(=O)c1cnc(C2CC(c3ccccc3Cl)=NO2)n1C)c1cccnc1` (stereo not shown) [Example I-1-9], the “logP[a]” value in data set [1] (setting [6]) is 1.69. Moreover, the “logP[n]” value in data set [1] (setting [7]) is recorded as 1.95. Also, the “efficacy (aphids killed)” value in data set [2] and in data set [3] was 100% in each case.

On to `CN(C(=O)c1cnc(C2CC(c3cccc(Cl)c3)=NO2)n1C)c1cccnc1` (stereo not shown) [Example I-1-10], for which, in data set [1] (setting [6]), the “logP[a]” value is 1.88. For the same compound, the “logP[n]” value in data set [1] (setting [7]) turned out to be 2.10. In addition, the “efficacy (aphids killed)” value in data set [2] and in data set [3] was 100% in each case.

With `CN(C(=O)c1cnc(C2CC(c3ccc(Cl)cc3)=NO2)n1C)c1cccnc1` (stereo not shown) [Example I-1-11], the “logP[a]” value in data set [1] (setting [6]) turned out to be 1.97. In addition, the “logP[n]” value in data set [1] (setting [7]) came out at 2.12. The “efficacy (aphids killed)” value in data set [2] and in data set [3] was 100% each time.

For the compound `CN(C(=O)c1cnc(C2CC(c3cccc(Cl)c3Cl)=NO2)n1C)c1cccnc1` (stereo not shown) [Example I-1-12], the “logP[a]” value in data set [1] (setting [6]) is 2.07. Moreover, the “logP[n]” value in data set [1] (setting [7]) is 2.25. Also, the “efficacy (aphids killed)” value in data set [2] and in data set [3] was 100% throughout.

On to `CN(C(=O)c1cnc(C2CC(c3ccc(Cl)cc3Cl)=NO2)n1C)c1cccnc1` (stereo not shown) [Example I-1-13], for which the “logP[a]” value in data set [1] (setting [6]) was found to be 2.23. In addition, the “logP[n]” value in data set [1] (setting [7]) came out at 2.41. Also, the “efficacy (aphids killed)” value in data set [2] and in data set [3] was 100% each time.

`CN(C(=O)c1cnc(C2CC(c3cc(Cl)ccc3Cl)=NO2)n1C)c1cccnc1` (stereo not shown) [Example I-1-14]: in data set [1] (setting [6]), the “logP[a]” value worked out at 2.13. Further, the “logP[n]” value in data set [1] (setting [7]) is reported as 2.32. Moreover, the figures for the “efficacy (aphids killed)” value in data set [2] and in data set [3] were 90% and 100%, respectively.

For the compound `CN(C(=O)c1cnc(C2CC(c3c(Cl)cccc3Cl)=NO2)n1C)c1cccnc1` (stereo not shown) [Example I-1-15], the “logP[a]” value in data set [1] (setting [6]) turned out to be 1.87. For the same compound, the “logP[n]” value in data set [1] (setting [7]) was 2.10. In addition, the “efficacy (aphids killed)” value in data set [2] and in data set [3] was 100% in each case.

With `CN(C(=O)c1cnc(C2CC(c3ccc(Cl)c(Cl)c3)=NO2)n1C)c1cccnc1` (stereo not shown) [Example I-1-16], the “logP[a]” value in data set [1] (setting [6]) is 2.27. In addition, the “logP[n]” value in data set [1] (setting [7]) came to 2.48. In addition, the “efficacy (aphids killed)” value in data set [2] and in data set [3] was 100% in each case.

For the compound `CN(C(=O)c1cnc(C2CC(c3cc(Cl)cc(Cl)c3)=NO2)n1C)c1cccnc1` (stereo not shown) [Example I-1-17], the “logP[a]” value in data set [1] (setting [6]) is reported as 2.39. Also, the “logP[n]” value in data set [1] (setting [7]) was 2.61. The “efficacy (aphids killed)” value in data set [2] and in data set [3] was 100% in each case.

With `CN(C(=O)c1cnc(C2CC(c3ccccc3C#N)=NO2)n1C)c1cccnc1` (stereo not shown) [Example I-1-18], in data set [1] (setting [6]), the “logP[a]” value came out at 1.34. Further, the “logP[n]” value in data set [1] (setting [7]) is 1.55. For the same compound, the “efficacy (aphids killed)” value in data set [2] is 90%; in data set [3], 100%.

For `CN(C(=O)c1cnc(C2CC(c3ccc(C#N)cc3)=NO2)n1C)c1cccnc1` (stereo not shown) [Example I-1-20], the “logP[a]” value in data set [1] (setting [6]) is 1.42. The “logP[n]” value in data set [1] (setting [7]) worked out at 1.62. Moreover, the “efficacy (aphids killed)” value was 90% in data set [2] and 100% in data set [3].

Consider `Cc1ccc(C2=NOC(c3ncc(C(=O)N(C)c4cccnc4)n3C)C2)cc1` (stereo not shown) [Example I-1-21], for which the “logP[a]” value in data set [1] (setting [6]) worked out at 1.75. In data set [1] (setting [7]), the “logP[n]” value is reported as 1.95. Also, the “efficacy (aphids killed)” value in data set [2] and in data set [3] was 100% throughout.

Turning to `COc1ccc(C2=NOC(c3ncc(C(=O)N(C)c4cccnc4)n3C)C2)cc1` (stereo not shown) [Example I-1-25], the “logP[a]” value in data set [1] (setting [6]) was 1.46. In addition, the “logP[n]” value in data set [1] (setting [7]) is 1.74. For the same compound, in data set [3], the “efficacy (aphids killed)” value was determined as 100%.

With `CN(C(=O)c1cnc(C2CC(c3cccnc3)=NO2)n1C)c1cccnc1` (stereo not shown) [Example I-1-27], the “logP[a]” value in data set [1] (setting [6]) was 0.64. Moreover, the “logP[n]” value in data set [1] (setting [7]) turned out to be 1.09. The “efficacy (aphids killed)” value in data set [2] came to 90%; in data set [3], 100%.

Turning to `CC1=NOC(C)(c2ncc(C(=O)N(C)c3cccnc3)n2C)C1` (stereo not shown) [Example I-1-31], the “logP[a]” value in data set [1] (setting [6]) worked out at 0.53. Also, in data set [1] (setting [7]), the “logP[n]” value was found to be 0.96. Further, the “efficacy (aphids killed)” value in data set [2] and in data set [3] was 90% throughout.

For `CN(C(=O)c1cnc(C2CC(c3ccc(OC(F)(F)F)cc3)=NO2)n1C)c1cccnc1` (stereo not shown) [Example I-1-33], the “logP[a]” value in data set [1] (setting [6]) stood at 2.28. Moreover, the “logP[n]” value in data set [1] (setting [7]) turned out to be 2.42. Further, the “efficacy (aphids killed)” value in data set [2] is on record as 90%.

For the compound `CN(C(=O)c1cnc(C2CC(c3c(Cl)cc(C(F)(F)F)cc3Cl)=NO2)n1C)c1cccnc1` (stereo not shown) [Example I-1-34], the “logP[a]” value in data set [1] (setting [6]) is reported as 2.66. The “logP[n]” value in data set [1] (setting [7]) turned out to be 2.75. Besides, the “efficacy (aphids killed)” value stood at 90% in data set [2] and 100% in data set [3].

As to `CN(C(=O)c1cnc(C2CC(c3ccc(C(F)(C(F)(F)F)C(F)(F)F)cc3)=NO2)n1C)c1cccnc1` (stereo not shown) [Example I-1-35], in data set [1] (setting [6]), the “logP[a]” value stood at 3.01. The “logP[n]” value in data set [1] (setting [7]) turned out to be 3.08. The “efficacy (aphids killed)” value in data set [2] is on record as 100%; in data set [3], 90%.

In the case of `CC(C)C1CC(c2ncc(C(=O)N(C)c3cccnc3)n2C)=NO1` (stereo not shown) [Example I-1-37], in data set [1] (setting [6]), the “logP[a]” value was determined as 1.65. For the same compound, in data set [1] (setting [7]), the “logP[n]” value worked out at 1.85.

As to `CN(C(=O)c1cnc(C2=NOC(C3CCCC3)C2)n1C)c1cccnc1` (stereo not shown) [Example I-1-38], in data set [1] (setting [6]), the “logP[a]” value is 2.09. For the same compound, the “logP[n]” value in data set [1] (setting [7]) amounted to 2.21.

As to `CN(C)C(=O)C1CC(c2ncc(C(=O)N(C)c3cccnc3)n2C)=NO1` (stereo not shown) [Example I-1-39], the “logP[a]” value in data set [1] (setting [6]) was found to be 0.78. The “logP[n]” value in data set [1] (setting [7]) is listed as 1.12.

Take `CN(C(=O)c1cnc(C2=NOC(c3ccc(C(F)(F)F)cc3)C2)n1C)c1cccnc1` (stereo not shown) [Example I-1-41]: the “logP[a]” value in data set [1] (setting [6]) is 2.49. Further, the “logP[n]” value in data set [1] (setting [7]) is reported as 2.60.

As to `CN(C(=O)c1cnc(C2=NOC(c3ccccn3)C2)n1C)c1cccnc1` (stereo not shown) [Example I-1-42], the “logP[a]” value in data set [1] (setting [6]) is 1.09. Besides, in data set [1] (setting [7]), the “logP[n]” value stood at 1.46.

For the compound `CN(C(=O)c1cnc(C2=NOC(c3cccnc3)C2)n1C)c1cccnc1` (stereo not shown) [Example I-1-43], the “logP[a]” value in data set [1] (setting [6]) stood at 0.56. For the same compound, the “logP[n]” value in data set [1] (setting [7]) is reported as 1.35.

Take `CN(C(=O)c1cnc(C2=NOC(c3ccncc3)C2)n1C)c1cccnc1` (stereo not shown) [Example I-1-44]: the “logP[a]” value in data set [1] (setting [6]) was 0.45. Further, the “logP[n]” value in data set [1] (setting [7]) came out at 1.34.

For `CN(C(=O)c1cnc(C2=NCCN2)n1C)c1cccnc1` [Example I-1-45, N,1-Dimethyl-N-(pyridin-3-yl)-4′,5′-dihydro-1H,1′H-2,2′-biimidazole-5-carboxamide], the chromatographic logP in data set [1] (setting [5]) came to 0.54.

As to `CN1CCN=C1c1ncc(C(=O)N(C)c2cccnc2)n1C` [Example I-1-46], in data set [1] (setting [7]), the “logP[n]” value is given as 0.74.

Turning to `N#Cc1cccc(C=NO)c1` [IX-19, 3-(Hydroxyimino)methylbenzonitrile], the chromatographic logP in data set [1] (HPLC RP C18, acidic range pH 2.7, 0.1% formic acid/acetonitrile, read-out: logP[a]) came out at 1.2.

On to `CN(C(=O)c1cnc(I)n1C)c1cccnc1` [VI-1-1, 2-Iodo-N,1-dimethyl-N-(pyridin-3-yl)-1H-imidazole-5-carboxamide], for which the results for the chromatographic logP in data set [1] (setting [4]) and in data set [1] (setting [5]) were 0.66 and 0.97, respectively.

Turning to `C=Cc1ncc(C(=O)N(C)c2cccnc2)n1C` [VII-1-1, N,1-Dimethyl-N-(pyridin-3-yl)-2-vinyl-1H-imidazole-5-carboxamide], in data set [1] (setting [5]), the chromatographic logP amounted to 0.82.

For the compound `CN(C(=O)c1cnc(C=O)n1C)c1cccnc1` [XIII-1-1, 2-Formyl-N,1-dimethyl-N-(pyridin-3-yl)-1H-imidazole-5-carboxamide], the chromatographic logP is 0.43 in data set [1] (setting [4]) and 0.6 in data set [1] (setting [5]).

As for `CN(C(=O)c1cnc(C=NO)n1C)c1cccnc1` [XVIII-1-1, 2-[(Hydroxyimino)methyl]-N,1-dimethyl-N-(pyridin-3-yl)-1H-imidazole-5-carboxamide], in data set [1] (setting [5]), the chromatographic logP is 0.51.

For the compound `CN(C(=O)c1cnc(C#N)n1C)c1cccnc1` [XXIII-1-1, 2-Cyano-N,1-dimethyl-N-(pyridin-3-yl)-1H-imidazole-5-carboxamide], the results for the chromatographic logP in data set [1] (setting [4]) and in data set [1] (setting [5]) were 0.63 and 0.85, respectively.
